{"source": "the Deep4Chem optical property database", "test": "solvent given as SMILES", "note": "Several values for one entry are separate records, joined by “and”; a condition that tells them apart may be missing. Equal values may be shown once.", "data": [{"smiles": "COC1=C/C(=C\\C=C2C=CN(Cc3ccc(Br)cc3)C=C2)C=CC1=O", "values": [{"measurement": "absorption maximum", "setting": "in CC#N", "result": 617, "unit": "nm"}, {"measurement": "absorption maximum", "setting": "in CC(C)=O", "result": 624, "unit": "nm"}, {"measurement": "absorption maximum", "setting": "in CC(C)CO", "result": 576, "unit": "nm"}, {"measurement": "absorption maximum", "setting": "in CC(C)O", "result": 585, "unit": "nm"}, {"measurement": "absorption maximum", "setting": "in CCC#N", "result": 620, "unit": "nm"}, {"measurement": "absorption maximum", "setting": "in CCCCCCO", "result": 584, "unit": "nm"}, {"measurement": "absorption maximum", "setting": "in CCCCCO", "result": 588, "unit": "nm"}, {"measurement": "absorption maximum", "setting": "in CCCCO", "result": 576, "unit": "nm"}, {"measurement": "absorption maximum", "setting": "in CCCO", "result": 577, "unit": "nm"}, {"measurement": "absorption maximum", "setting": "in CCO", "result": 568, "unit": "nm"}, {"measurement": "absorption maximum", "setting": "in CN(C)C=O", "result": 621, "unit": "nm"}, {"measurement": "absorption maximum", "setting": "in CN(C)P(=O)(N(C)C)N(C)C", "result": 629, "unit": "nm"}, {"measurement": "absorption maximum", "setting": "in CO", "result": 537, "unit": "nm"}, {"measurement": "absorption maximum", "setting": "in CS(C)=O", "result": 619, "unit": "nm"}]}, {"smiles": "COc1c(-c2ccc(N(C)C)cc2)oc2ccccc2c1=O", "values": [{"measurement": "absorption maximum", "setting": "in C1CCCCC1", "result": 361, "unit": "nm"}, {"measurement": "absorption maximum", "setting": "in CC#N", "result": 375, "unit": "nm"}, {"measurement": "absorption maximum", "setting": "in CCOC(C)=O", "result": 372, "unit": "nm"}]}, {"smiles": "CCCC1(CCC)c2ccccc2-c2ccc(-c3ccc(OC)cc3)cc21", "values": [{"measurement": "absorption maximum", "setting": "in C1CCCCC1", "result": 315, "unit": "nm"}]}, {"smiles": "CCCCCCOc1cc(/C=C/c2cc(OCCCCCC)c(/C=C/c3cc(OCCCCCC)c(C=C4C(=C(C#N)C#N)c5ccccc5C4=C(C#N)C#N)cc3OCCCCCC)cc2OCCCCCC)c(OCCCCCC)cc1C=C1C(=C(C#N)C#N)c2ccccc2C1=C(C#N)C#N", "values": [{"measurement": "absorption maximum", "setting": "in ClCCl", "result": 640, "unit": "nm"}]}, {"smiles": "COCCN1C(=O)/C(=C/c2cccc(N(C)C)c2)N=C1C", "values": [{"measurement": "absorption maximum", "setting": "in C1CCOC1", "result": 353, "unit": "nm"}, {"measurement": "absorption maximum", "setting": "in CC#N", "result": 353, "unit": "nm"}, {"measurement": "absorption maximum", "setting": "in CCCCCC", "result": 352, "unit": "nm"}]}, {"smiles": "COC(=O)C(NC(=O)OC(C)(C)C)c1ccc2oc(-c3ccc(F)cc3)nc2c1", "note": "(configuration not stated)", "values": [{"measurement": "absorption maximum", "setting": "in CC1CCCCC1", "result": 317, "unit": "nm"}, {"measurement": "absorption maximum", "setting": "in CC#N", "result": 314, "unit": "nm"}, {"measurement": "absorption maximum", "setting": "in CO", "result": 302, "unit": "nm"}]}, {"smiles": "Cc1cc(-c2nc(-c3ccccc3)nc(-c3ccccc3)n2)c(C)cc1-c1ccc2c(c1)C1(c3ccccc3-c3ccccc31)c1ccccc1N2c1ccccc1", "values": [{"measurement": "absorption maximum", "setting": "in c1cc(-c2cccc(-n3c4ccccc4c4ccccc43)c2)cc(-n2c3ccccc3c3ccccc32)c1", "result": 363.44, "unit": "nm"}]}, {"smiles": "Cc1nc2cccc(-c3nc4ccc([N+](=O)[O-])cc4[nH]3)c2c(=O)[nH]1", "values": [{"measurement": "absorption maximum", "setting": "in CN(C)C=O", "result": 310, "unit": "nm"}]}, {"smiles": "Oc1ccccc1-c1nc2c3ccccc3c3ccccc3c2o1", "values": [{"measurement": "absorption maximum", "setting": "in Cc1ccccc1", "result": 364, "unit": "nm"}]}, {"smiles": "N#Cc1c(N2CCCC2)cc(-c2ccccc2)c2c1-c1ccccc1C2", "values": [{"measurement": "absorption maximum", "setting": "in C1CCOC1", "result": 353, "unit": "nm"}]}, {"smiles": "CCCCCCOc1ccc2oc3c(c2c1)=CC1=C(c2ccccc2C)c2cc4c5cc(OCCCCCC)ccc5oc4n2[B-](F)(F)[N+]=31", "values": [{"measurement": "absorption maximum", "setting": "in C1CCCCC1", "result": 592, "unit": "nm"}, {"measurement": "absorption maximum", "setting": "in CCOC(C)=O", "result": 587, "unit": "nm"}, {"measurement": "absorption maximum", "setting": "in CO", "result": 585, "unit": "nm"}]}, {"smiles": "CN1C(=CC2=C([O-])C(=Cc3sc4ccccc4[n+]3C)C2=C(C#N)C#N)C(C)(C)c2ccccc21", "values": [{"measurement": "absorption maximum", "setting": "in ClC(Cl)Cl", "result": 691, "unit": "nm"}]}, {"smiles": "c1ccc(Cc2c3ccc(=[N+]4CCCCC4)cc-3oc3cc(N4CCCCC4)ccc23)cc1", "values": [{"measurement": "absorption maximum", "setting": "in ClCCl", "result": 566, "unit": "nm"}]}, {"smiles": "Nc1cc(N)cc(-c2nc3ccccc3s2)c1", "values": [{"measurement": "absorption maximum", "setting": "in C1CCCCC1", "result": 360, "unit": "nm"}, {"measurement": "absorption maximum", "setting": "in C1COCCO1", "result": 360, "unit": "nm"}, {"measurement": "absorption maximum", "setting": "in CC#N", "result": 360, "unit": "nm"}, {"measurement": "absorption maximum", "setting": "in CC(C)O", "result": 360, "unit": "nm"}, {"measurement": "absorption maximum", "setting": "in CCOC(C)=O", "result": 360, "unit": "nm"}, {"measurement": "absorption maximum", "setting": "in CCOCC", "result": 360, "unit": "nm"}, {"measurement": "absorption maximum", "setting": "in CO", "result": 360, "unit": "nm"}, {"measurement": "absorption maximum", "setting": "in O", "result": 360, "unit": "nm"}]}, {"smiles": "CC1=CC(C)=[N+]2C1=C(c1ccc(C(=O)OC3C[C@@H]4CC[C@]3(C)C4(C)C)cc1)c1c(C)cc(C)n1[B-]2(F)F", "note": "(some centres not stated)", "values": [{"measurement": "absorption maximum", "setting": "in Cc1ccccc1", "result": 506, "unit": "nm"}]}, {"smiles": "CCN1C(=O)C(C2C(=O)c3c4ccccc4cc4cc5ccccc5c2c34)C(=O)N(CC)C1=S", "note": "(configuration not stated)", "values": [{"measurement": "absorption maximum", "setting": "in ClCCl", "result": 532.11, "unit": "nm"}]}, {"smiles": "COc1ccc2c(c1)C(=O)c1ccccc1-2", "values": [{"measurement": "absorption maximum", "setting": "in C1CCCCC1", "result": 421, "unit": "nm"}, {"measurement": "absorption maximum", "setting": "in CC#N", "result": 432, "unit": "nm"}, {"measurement": "absorption maximum", "setting": "in CCO", "result": 433, "unit": "nm"}]}, {"smiles": "CCCCCCC(CCCCCC)N1C(=O)c2cccc3c(-c4ccc(-c5ccc(OC)cc5)cc4)ccc(c23)C1=O", "values": [{"measurement": "absorption maximum", "setting": "in CCCCCC", "result": 354, "unit": "nm"}, {"measurement": "absorption maximum", "setting": "in CCCCCCCCCCCCCC", "result": 357.6, "unit": "nm"}, {"measurement": "absorption maximum", "setting": "in CCCCCCCCCCCO", "result": 369.4, "unit": "nm"}, {"measurement": "absorption maximum", "setting": "in CCCCO", "result": 366, "unit": "nm"}, {"measurement": "absorption maximum", "setting": "in CN(C)C=O", "result": 369, "unit": "nm"}, {"measurement": "absorption maximum", "setting": "in Cc1ccccc1", "result": 364.8, "unit": "nm"}, {"measurement": "absorption maximum", "setting": "in ClC(Cl)Cl", "result": 364.4, "unit": "nm"}]}, {"smiles": "COC(=O)/C=C/C1=CC2=C(c3c(C)cc(C)cc3C)c3cccn3[B-](F)(F)[N+]2=C1", "values": [{"measurement": "absorption maximum", "setting": "in ClCCl", "result": 537, "unit": "nm"}]}, {"smiles": "c1ccc(-c2nc(-c3ccccn3)[se]c2N(c2ccccc2)c2ccccc2)cc1", "values": [{"measurement": "absorption maximum", "setting": "in ClC(Cl)Cl", "result": 406, "unit": "nm"}]}, {"smiles": "CCN(CC)c1ccc(-c2cc3c(s2)c(C(=O)OC)cc(=O)n3C)cc1", "values": [{"measurement": "absorption maximum", "setting": "in C1CCOC1", "result": 436, "unit": "nm"}, {"measurement": "absorption maximum", "setting": "in CC#N", "result": 436, "unit": "nm"}, {"measurement": "absorption maximum", "setting": "in CCO", "result": 444, "unit": "nm"}, {"measurement": "absorption maximum", "setting": "in CO", "result": 444, "unit": "nm"}, {"measurement": "absorption maximum", "setting": "in CS(C)=O", "result": 446, "unit": "nm"}, {"measurement": "absorption maximum", "setting": "in Cc1ccccc1", "result": 434, "unit": "nm"}]}, {"smiles": "CCC1(CC)c2cc(/C=C/c3ccc(N(c4ccccc4)c4ccccc4)cc3)ccc2-c2ccc(/C=C/c3ccc(N(c4ccccc4)c4ccccc4)cc3)cc21", "values": [{"measurement": "absorption maximum", "setting": "in Cc1ccccc1", "result": 412, "unit": "nm"}]}, {"smiles": "CCN1CCN(c2ccc(/N=N/c3ccc(C#N)cc3)cc2)CC1", "values": [{"measurement": "absorption maximum", "setting": "in CCOC(C)=O", "result": 428, "unit": "nm"}]}, {"smiles": "CC1(C)C(/C=C/C=C/C=C/C=C2/N(S(=O)(=O)[O-])c3ccc(S(=O)(=O)[O-])cc3C2(C)C)=[N+](S(=O)(=O)[O-])c2ccc(S(=O)(=O)[O-])cc21", "values": [{"measurement": "absorption maximum", "setting": "in CO", "result": 755, "unit": "nm"}]}, {"smiles": "O=c1oc2ccccc2cc1-c1cc2ccccc2o1", "values": [{"measurement": "absorption maximum", "setting": "in CC#N", "result": 366, "unit": "nm"}, {"measurement": "absorption maximum", "setting": "in CCOC(C)=O", "result": 368, "unit": "nm"}, {"measurement": "absorption maximum", "setting": "in CS(C)=O", "result": 371, "unit": "nm"}, {"measurement": "absorption maximum", "setting": "in Cc1ccccc1", "result": 373, "unit": "nm"}, {"measurement": "absorption maximum", "setting": "in O", "result": 365, "unit": "nm"}]}, {"smiles": "CCCCN1c2ccccc2Sc2cc(/C=C\\c3cc(=O)oc4cc(C)ccc34)ccc21", "values": [{"measurement": "absorption maximum", "setting": "in ClC(Cl)Cl", "result": 424, "unit": "nm"}]}, {"smiles": "COc1ccc(-c2cc3c(o2)=CC2=Cc4cc5oc(-c6ccc(OC)cc6)cc5n4[B-](F)(F)[N+]=32)cc1", "values": [{"measurement": "absorption maximum", "setting": "in ClC(Cl)Cl", "result": "673 nm and 672 nm"}]}]}
